Measured values published in patent publication US4713457A, “Ergoline derivatives and acid addition salts thereof” (priority 1985, dated 1987).
Where a name gives a salt, the structure may show the parent alone.

Key:
[1] = test system: ddY male mice, reserpine-induced immobility; assay: Activity on reserpine-induced immobility (open-field method); assay type: in vivo, mouse; conditions: reserpine 2 mg/kg, total of 1-min counts at 15, 30, 45, 60 min, ***p < 0.001
Method: Reserpine was administered intraperitoneally to ddY male mice (4 week old) at a dose of 2 mg/kg, and, after 18 to 20 hours, the test compound was administered intraperitoneally to the mice. Thereafter, the ambulation (the number of times of the animal crossed the demarcation line) of the mice was counted for a period of 1 minute at 15, 30, 45 and 60 minutes after the administration of the test compound, respectively, according to the open-field method. The total number of ambulation determined at 4 times in each mouse and compared with that of the control.

[2] = test system: Rats with unilateral 6-hydroxydopamine lesion of the substantia nigra; assay: Rotational activity in rats with unilateral 6-hydroxydopamine lesion of the substantia nigra; assay type: in vivo, rat
Method: Rats under pentobarbital sodium anesthesia (50 mg/kg, i.p.) were fixed on an apparatus for fixing brain, and 6-hydroxydopamine (8 μg/4 μl) was injected in the substantia nigra (A:3.0, L:2.6, D:7.8) according to Pellegrino & Cushman's atlas. Seven days after the injection of 6-hydroxydopamine, apomorphine was administered subcutaneously at a dose of 0.25 mg/kg, and the rats showing […] rotating movement to one side opposite to the destroyed side were selected. After 7 days, the test compound was administered intraperitoneally and, thereafter, rotating movement of the rats was observed over 1 minute at an interval of 5 minutes during a period of 60 minutes.

[3] = J. Affect. Disord., Vol. 1, 173 (1979); cited from earlier work
[4] = test system: Donryu male rats, indomethacin ulcer; assay: Anti-ulcer activity, indomethacin-induced ulcer; assay type: in vivo, rat; conditions: 10 mg/kg oral, indomethacin 25 mg/kg
Method: The test compound was administered orally to Donryu male rats weighing 240 to 300 g (7 rats per group) which have been fasting for 24 hours before testing, and, after 30 minutes, indomethacin was administered orally to the rats at a dose of 25 mg/kg. The rats were then maintained for 7 hours without feeding water and foods and then sacrificed. The stomach was extracted and fixed by infusing 7.5 ml of a 2% formalin solution into the stomach. The stomach was incised along the greater curvature thereof, and length (mm) of each ulcer generated in gastric glands was determined. The total length of the ulcer per rat was expressed in terms of an ulcer index.
In this experiment, the test compound was suspended in a 0.5% aqueous gum arabic and administered at a volume of 5 ml/kg. Indomethacin (manufacturedby Sigma Co., Ltd.) was administered as a 0.5 wt% aqueous suspension in sodium carboxymethyl cellulose at a volume of 5 ml/kg. As a control, a 0.5 wt% suspension of aqueous gum arabic was orally administered at a volume of 5 ml/kg.

[5] = test system: unanesthetized spontaneously hypertensive rats; assay: Anti-hypertensive activity, systolic blood pressure, tail cuff method; assay type: in vivo, rat; conditions: 10 mg/kg oral
Method: (§1) The anti-hypertensive activity of the compounds was determined by the tail cuff method using unanesthetized spontaneously hypertensive rats weighing 300 to 350 g (21 to 25 week old). In this experiment, the systolic blood pressure was determined by the bloodless method using a hemodynamometer. The heart rate was determined simultaneously using a sphygmometer connected to the pulse output. After rats were placed under condition of 40° C. for 10 minutes, the blood pressure was determined by holding the rats in a holder. The test compounds were suspended in a 0.5 wt% aqueous gum arabic. Hydralazine hydrochloride used as a comparative agent was administered as an aqueous solution thereof. The volume of oral administration was 0.5 ml per 100 g of body weight.

[6] = test system: Rats, pylorus portion ligated (gastric secretion); assay: Gastric secretion inhibitory activity in pylorus-ligated rats; assay type: in vivo, rat; conditions: 10 mg/kg into the duodenum, 6 hours
Method: Rats weighing 200 to 250 g (8 rats per group) which have been fasting for 24 hours before testing were subjected to abdominal section under ether anesthesia, and the pylorus portion was ligated. Immediately after ligation, the test compound was administered into the duodenum as a suspension in a 5 wt% aqueous gum arabic at a volume of 2 ml/kg. The rats were sacrificed after 6 hours, and the stomach was extracted. The gastric juice was collected to determine the volume thereof, and the acidity of the gastic juice was titrated to a pH 7.0 with a 0.02N aqueous sodium hydroxide solution using a pH meter. The acid secretion amount per 6 hours (μEq/6 h) was calculated by (volume of gastric juice×acidity of gastric juice).

[7] = test system: unanesthetized spontaneously hypertensive rats; assay: Heart rate determined simultaneously with blood pressure (sphygmometer connected to the pulse output); assay type: in vivo, rat; conditions: for Changes in Heart Rate: 10 mg/kg oral
Method: as §1

[8] = test system: ddY male mice, KCN-induced anoxia; assay: Activity on KCN-induced anoxia in mice; assay type: in vivo, mouse
[9] = test system: human; conditions: in human, side-effect; cited from earlier work

| Compound | Ambulation ([1]; 10 mg/kg i.p., n = 6) | Changes in Systolic Blood Pressure ([5]; 1 hr after administration) | Changes in Systolic Blood Pressure ([5]; 2 hrs after administration) | Changes in Systolic Blood Pressure ([5]; 4 hrs after administration) | Changes in Systolic Blood Pressure ([5]; 6 hrs after administration) | Changes in Systolic Blood Pressure ([5]; 24 hrs after administration) | Changes in Heart Rate ([7]; 1 hr after administration) | Changes in Heart Rate ([7]; 2 hrs after administration) | Changes in Heart Rate ([7]; 4 hrs after administration) | Changes in Heart Rate ([7]; 6 hrs after administration) | Changes in Heart Rate ([7]; 24 hrs after administration) | also measured |
| --- | --- | --- | --- | --- | --- | --- | --- | --- | --- | --- | --- | --- |
| CN1CCc2cccc3c2[C@H]1Cc1ccc(O)c(O)c1-3 [Apomorphine Hydrochloride, reference compound] |  |  |  |  |  |  |  |  |  |  |  | Ambulation ([1]; 3 mg/kg i.p., n = 10): 71.0 ± 7.0; Number of Rotating Movement over 60 min. ([2]; 0.5 mg/kg i.p.): 147 |
| CC(C)C[C@H]1C(=O)N2CCC[C@H]2[C@]2(O)O[C@](NC(=O)[C@@H]3C=C4c5cccc6[nH]c(Br)c(c56)C[C@H]4N(C)C3)(C(C)C)C(=O)N12 [Bromocriptine Methanesulfonate] | 36.7 ± 12.3 |  |  |  |  |  |  |  |  |  |  | Anti-depressive activity (known) [3]: has been known to have an anti-depressive activity |
| CN1C[C@H](CN2CCOC2=O)C[C@@H]2c3cccc4[nH]cc(c34)C[C@H]21 [Example 2, 3-(6-Methylergolin-8β-ylmethyl)oxazolidin-2-one] |  | -64 Δ mmHg | -36 Δ mmHg | -37 Δ mmHg | -52 Δ mmHg | -11 Δ mmHg | -39 Δ/min. | -74 Δ/min. | -58 Δ/min. | -56 Δ/min. | -23 Δ/min. | Ulcer Index Inhibition [4]: 92.7%; Ulcer Index ([4]; ***p < 0.001): 4.4 ± 2.3 mm; Volume of Acid Secreted, Inhibition [6]: 70.8%; Volume of Gastric Juice, Inhibition [6]: 63.3%; Total Acidity ([6]; *p < 0.05): 61.4 ± 7.5 mEq/liter; Survival Time ([8]; 10 mg/kg i.p., KCN 2.5 mg/kg i.v., **p < 0.01, ***p < 0.001, survivors counted as 180 sec): 144.4 ± 17.6 s; Number of Survived Mice/Total Mice ([8]; 10 mg/kg i.p., KCN 2.5 mg/kg i.v., survived longer than 3 minutes): 5/8; Brain protection activity (in words) ([8]; Table 5): exhibited the activity higher that that of dihydroergotoxine methanesulfonate |
| CN1C[C@H](Cn2cncn2)C[C@@H]2c3cccc4[nH]cc(c34)C[C@H]21 [Example 6, 1-(6-Methylergolin-8β-ylmethyl)-1,2,4-triazole] | 198.8 ± 32.2 | -64 Δ mmHg | -67 Δ mmHg | -62 Δ mmHg | -65 Δ mmHg | -14 Δ mmHg | -8 Δ/min. | -30 Δ/min. | -33 Δ/min. | -21 Δ/min. | -10 Δ/min. | Duration of increase in spontaneous movement and sniffing ([2]; 10 mg/kg i.p.): more than 5 hours; Number of Rotating Movement over 60 min. ([2]; 10 mg/kg i.p.): 0; Spontaneous movement and sniffing ([2]; 10 mg/kg i.p.): Increase in spontaneous movement and sniffing occurred markedly |
| NNc1nncc2ccccc12 [Hydralazine Hydrochloride, reference compound] |  | -47 Δ mmHg | -52 Δ mmHg | -67 Δ mmHg | -41 Δ mmHg | -22 Δ mmHg | 65 Δ/min. | 66 Δ/min. | 75 Δ/min. | 64 Δ/min. | 44 Δ/min. | Tachycardia [9]: exhibited tachycardia in human as one of side-effects; Heart rate effect (in words) ([7]; Table 2): a marked increase in heart rate |
